This note sets out measurements from US11014941B2, “Pyrrolopyrimidine derivatives useful as inhibitors of influenza virus replication” (priority 2017, dated 2021).

Sequence of Influenza PB2 (P03428 whole entry, looked up): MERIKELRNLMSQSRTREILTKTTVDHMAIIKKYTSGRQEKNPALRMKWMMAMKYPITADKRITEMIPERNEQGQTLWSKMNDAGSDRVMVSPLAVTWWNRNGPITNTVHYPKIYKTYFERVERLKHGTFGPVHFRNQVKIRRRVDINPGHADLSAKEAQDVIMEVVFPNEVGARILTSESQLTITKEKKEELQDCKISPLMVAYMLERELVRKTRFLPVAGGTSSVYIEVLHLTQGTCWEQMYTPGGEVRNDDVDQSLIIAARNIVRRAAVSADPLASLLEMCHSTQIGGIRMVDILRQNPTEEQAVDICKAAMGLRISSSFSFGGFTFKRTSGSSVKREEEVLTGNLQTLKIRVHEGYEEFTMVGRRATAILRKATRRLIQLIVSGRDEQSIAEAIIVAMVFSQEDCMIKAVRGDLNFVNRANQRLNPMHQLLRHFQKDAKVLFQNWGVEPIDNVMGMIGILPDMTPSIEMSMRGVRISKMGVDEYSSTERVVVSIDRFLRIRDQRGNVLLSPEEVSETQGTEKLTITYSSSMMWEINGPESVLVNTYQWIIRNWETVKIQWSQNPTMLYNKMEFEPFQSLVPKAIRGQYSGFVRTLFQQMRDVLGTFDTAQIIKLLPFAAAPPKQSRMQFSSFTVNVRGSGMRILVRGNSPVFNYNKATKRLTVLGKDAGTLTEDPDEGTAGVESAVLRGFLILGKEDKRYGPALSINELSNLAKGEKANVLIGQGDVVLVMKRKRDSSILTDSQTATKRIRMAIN

The experiment addresses Influenza PB2 (Influenza A virus, UniProt P03428). In words: biochemical. The following applies: read-out: Influenza PB2 affinity, IC50. It is filed as binding.
As a reminder, the IC50 is the concentration that gives 50% inhibition. As for `O=C(O)[C@@H]1C2CCC(CC2)[C@H]1n1cc(-c2ccncc2)c2cnc(-c3c[nH]c4ncc(F)cc34)nc21` [Compound B147], the IC50 lay in the range of 1 to 10 µM. Under `COC(=O)N[C@H]1C2CCC(CC2)[C@@H]1n1cc(Cl)c2cnc(-c3c[nH]c4ncc(F)cc34)nc21` [Compound B149] stands 1 to 10 µM; under `O=C(O)[C@@H]1C2CCC(CC2)[C@H]1n1cc(-c2ccccc2)c2cnc(-c3c[nH]c4ncc(F)cc34)nc21` [Compound B150], 1 to 10 µM. The result for `O=C(O)[C@@H]1C2CCC(CC2)[C@H]1n1cc(C(F)(F)F)c2cnc(-c3c[nH]c4ncc(F)cc34)nc21` [Compound B151] reads less than 1 µM; that for `O=C(O)[C@@H]1C2CCC(CC2)[C@H]1n1cc(C#CCC2CC2)c2cnc(-c3c[nH]c4ncc(F)cc34)nc21` [Compound B152], 10 to 100 µM. The result for `O=C(O)[C@@H]1C2CCC(CC2)[C@H]1n1cc(C#CC2CC2)c2cnc(-c3c[nH]c4ncc(F)cc34)nc21` [Compound B153] reads less than 1 µM; that for `CCOC(=O)[C@@H]1C2CCC(CC2)[C@H]1n1cc(C#CC2CC2)c2cnc(-c3c[nH]c4ncc(F)cc34)nc21` [Compound B154], 10 to 100 µM; that for `O=C(O)[C@@H]1C2CCC(CC2)[C@H]1n1cc(-c2ccc(O)cc2)c2cnc(-c3c[nH]c4ncc(F)cc34)nc21` [Compound B160], 1 to 10 µM. In the case of `O=C(O)[C@@H]1C2CCC(CC2)[C@H]1n1cc(-c2ccoc2)c2cnc(-c3c[nH]c4ncc(F)cc34)nc21` [Compound B161], the IC50 was less than 1 µM. The result for `O=C(O)[C@@H]1C2CCC(CC2)[C@H]1n1cc(-c2ccsc2)c2cnc(-c3c[nH]c4ncc(F)cc34)nc21` [Compound B162] reads less than 1 µM; that for `Cc1cn([C@@H]2C3CCC(CC3)[C@H]2C(=O)O)c2nc(-c3c[nH]c4ncc(F)cc34)ncc12` [Compound B163], less than 1 µM; that for `O=C(O)[C@@H]1C2CCC(CC2)[C@H]1n1cc(-c2ccn[nH]2)c2cnc(-c3c[nH]c4ncc(F)cc34)nc21` [Compound B164], less than 1 µM. As for `O=C(O)[C@@H]1C2CCC(CC2)[C@H]1n1cc(-c2ccccc2O)c2cnc(-c3c[nH]c4ncc(F)cc34)nc21` [Compound B165], the IC50 is 1 to 10 µM. The result for `CC(=O)N[C@H]1C2CCC(CC2)[C@@H]1n1cc(Cl)c2cnc(-c3c[nH]c4ncc(F)cc34)nc21` [Compound B166] reads 10 to 100 µM. In the case of `N[C@H]1C2CCC(CC2)[C@@H]1n1cc(Cl)c2cnc(-c3c[nH]c4ncc(F)cc34)nc21` [Compound B167], the IC50 fell in the range of 1 to 10 µM. Under `CNC(=O)N[C@H]1C2CCC(CC2)[C@@H]1n1cc(Cl)c2cnc(-c3c[nH]c4ncc(F)cc34)nc21` [Compound B168] stands 1 to 10 µM; under `O=C(O)[C@@H]1C2CCC(CC2)[C@H]1n1cc(-c2ccccn2)c2cnc(-c3c[nH]c4ncc(F)cc34)nc21` [Compound B169], less than 1 µM; under `COC(=O)[C@@H]1C2CCC(CC2)[C@H]1n1cc(-c2ccccc2O)c2cnc(-c3c[nH]c4ncc(F)cc34)nc21` [Compound B170], 10 to 100 µM.

As for `CN(C)C(=O)N[C@H]1C2CCC(CC2)[C@@H]1n1cc(Cl)c2cnc(-c3c[nH]c4ncc(F)cc34)nc21` [Compound B171], the IC50 was in the range of 1 to 10 µM. On to `CC(C)(C)OC(=O)N[C@@H]1C2CCC(CC2)[C@H]1n1cc(Cl)c2cnc(-c3c[nH]c4ncc(F)cc34)nc21` [Compound B172], for which the IC50 was more than 100 µM.

As to `COC(=O)[C@@H]1C2CCC(CC2)[C@H]1n1cc(-c2ccn[nH]2)c2cnc(-c3c[nH]c4ncc(F)cc34)nc21` [Compound B173], the IC50 was in the range of 1 to 10 µM.

Turning to `CCOC(=O)[C@@H]1C2CCC(CC2)[C@H]1n1cc(-c2cn[nH]c2)c2cnc(-c3c[nH]c4ncc(F)cc34)nc21` [Compound B174], the half-maximal inhibitory concentration (IC50) is 10 to 100 µM.

As to `CC(C)c1cn([C@@H]2C3CCC(CC3)[C@H]2C(=O)O)c2nc(-c3c[nH]c4ncc(F)cc34)ncc12` [Compound B175], the IC50 is less than 1 µM.

As to `CCOC(=O)[C@@H]1C2CCC(CC2)[C@H]1n1cc(-c2ccncc2)c2cnc(-c3c[nH]c4ncc(F)cc34)nc21` [Compound B176], the IC50 lay within 10 to 100 µM. The result for `CCOC(=O)[C@@H]1C2CCC(CC2)[C@H]1n1cc(C(F)(F)F)c2cnc(-c3c[nH]c4ncc(F)cc34)nc21` [Compound B177] reads 10 to 100 µM; that for `CCOC(=O)[C@@H]1C2CCC(CC2)[C@H]1n1cc(-c2ccc(O)cc2)c2cnc(-c3c[nH]c4ncc(F)cc34)nc21` [Compound B178], 10 to 100 µM. The result for `O=C(O)[C@@H]1C2CCC(CC2)[C@H]1n1cc(-c2cn[nH]c2)c2cnc(-c3c[nH]c4ncc(F)cc34)nc21` [Compound B179] reads less than 1 µM. Under `CCOC(=O)[C@@H]1C2CCC(CC2)[C@H]1n1cc(C(C)C)c2cnc(-c3c[nH]c4ncc(F)cc34)nc21` [Compound B180] stands 10 to 100 µM; under `CCOC(=O)[C@@H]1C2CCC(CC2)[C@H]1n1cc(-c2cccnc2)c2cnc(-c3c[nH]c4ncc(F)cc34)nc21` [Compound B181], 1 to 10 µM. `CCOC(=O)[C@@H]1C2CCC(CC2)[C@H]1n1cc(-c2cccc(O)c2)c2cnc(-c3c[nH]c4ncc(F)cc34)nc21` [Compound B182]: the IC50 is 1 to 10 µM.

`CCOC(=O)[C@@H]1C2CCC(CC2)[C@H]1n1cc(-c2ccsc2)c2cnc(-c3c[nH]c4ncc(F)cc34)nc21` [Compound B183]: the IC50 is 10 to 100 µM. In the case of `CCOC(=O)[C@@H]1C2CCC(CC2)[C@H]1n1cc(CCc2ccccn2)c2cnc(-c3c[nH]c4ncc(F)cc34)nc21` [Compound B184], the IC50 lay in the range of 10 to 100 µM. The result for `CCOC(=O)[C@H]1C2CCC(CC2)[C@@H]1n1cc(C#CCCSC)c2cnc(-c3c[nH]c4ncc(F)cc34)nc21` [Compound B185] reads more than 100 µM. As for `O=C(O)[C@@H]1C2CCC(CC2)[C@H]1n1cc(CCc2ccccn2)c2cnc(-c3c[nH]c4ncc(F)cc34)nc21` [Compound B186], the IC50 was less than 1 µM.

In the case of `O=C(O)[C@@H]1C2CCC(CC2)C1n1cc(-c2ccncc2)c2cnc(-c3c[nH]c4ncc(Cl)cc34)nc21` (stereo partly drawn) [Compound B187], the IC50 lay in the range of 1 to 10 µM. Under `CNC(=O)[C@@H]1C2CCC(CC2)[C@H]1n1cc(F)c2cnc(-c3c[nH]c4ncc(Cl)cc34)nc21` [Compound B188] stands 1 to 10 µM.

Consider `N#Cc1cn([C@@H]2C3CCC(CC3)[C@H]2C(=O)O)c2nc(-c3c[nH]c4ncc(Cl)cc34)ncc12` [Compound B191], for which the half-maximal inhibitory concentration (IC50) is less than 1 µM. The result for `CSCCCCc1cn([C@@H]2C3CCC(CC3)[C@H]2C(=O)O)c2nc(-c3c[nH]c4ncc(F)cc34)ncc12` [Compound B192] reads less than 1 µM; that for `N#CCCCCc1cn([C@@H]2C3CCC(CC3)[C@H]2C(=O)O)c2nc(-c3c[nH]c4ncc(F)cc34)ncc12` [Compound B193], less than 1 µM; that for `O=C(O)c1cn([C@H]2C3CCC(CC3)[C@@H]2C(=O)O)c2nc(-c3c[nH]c4ncc(Cl)cc34)ncc12` [Compound B196], 1 to 10 µM. In the case of `CNC(=O)c1cn([C@H]2C3CCC(CC3)[C@@H]2C(=O)O)c2nc(-c3c[nH]c4ncc(Cl)cc34)ncc12` [Compound B197], the IC50 was less than 1 µM. As to `O=C(O)[C@@H]1C2CCC(CC2)[C@H]1n1ccc2ccc(-c3c[nH]c4ncc(F)cc34)cc21` [Compound B198], the IC50 was 10 to 100 µM.
